Laboratory results from patent publication US10738028B2, “Spiro three-membered ring, spiro five-membered ring peptide deformylase inhibitor and use thereof in antibacteria and anti-tumor” (priority 2016, dated 2020).

Experiments:
Type in all cases: cell-based
[1] = system: Streptococcus pneoumoniae (SPN); test: MIC, two-fold agar dilution (CLSI), clinical isolates; conditions: for Anti-bacterial activity (MIC), strain SPN 16-2: clinical isolate SPN 16-2; for Anti-bacterial activity (MIC), strain SPN 16-4: clinical isolate SPN 16-4
In short: (§1)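 MIC values come from two-fold agar dilution run per CLSI antimicrobial susceptibility testing procedure.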

[2] = system: Enterococcus faecalis (EFA); test: as above; conditions: for Anti-bacterial activity (MIC), strain EFA 15-1: clinical isolate EFA 15-1; for Anti-bacterial activity (MIC), strain EFA 15-2: clinical isolate EFA 15-2; for Anti-bacterial activity (MIC), strain EFA 15-3: clinical isolate EFA 15-3; for Anti-bacterial activity (MIC), strain EFA 15-4: clinical isolate EFA 15-4; for Anti-bacterial activity (MIC), strain EFA 15-5: clinical isolate EFA 15-5; for Anti-bacterial activity (MIC), strain EFA 15-6: clinical isolate EFA 15-6; for Anti-bacterial activity (MIC), strain EFA 15-9: clinical isolate EFA 15-9
In short: as §1

[3] = system: methicillin-sensitive Staphylococcus epidermidis (MSSE); test: as above; conditions: for Anti-bacterial activity (MIC), strain MSSE 15-3: clinical isolate MSSE 15-3; for Anti-bacterial activity (MIC), strain MSSE 15-4: clinical isolate MSSE 15-4; for Anti-bacterial activity (MIC), strain MSSE 15-5: clinical isolate MSSE 15-5; for Anti-bacterial activity (MIC), strain MSSE 15-6: clinical isolate MSSE 15-6
In short: as §1

[4] = system: Moraxella catarrhalis (BCA); test: as above; conditions: for Anti-bacterial activity (MIC), strain BCA 14-1: clinical isolate BCA 14-1; for Anti-bacterial activity (MIC), strain BCA 14-4: clinical isolate BCA 14-4; for Anti-bacterial activity (MIC), strain BCA 14-5: clinical isolate BCA 14-5; for Anti-bacterial activity (MIC), strain BCA 14-6: clinical isolate BCA 14-6; for Anti-bacterial activity (MIC), strain BCA 14-7: clinical isolate BCA 14-7; for Anti-bacterial activity (MIC), strain BCA 14-8: clinical isolate BCA 14-8; for Anti-bacterial activity (MIC), strain BCA 14-10: clinical isolate BCA 14-10
In short: as §1

[5] = system: Enterococcus faecium (EFM); test: as above; conditions: for Anti-bacterial activity (MIC), strain EFM 15-1: clinical isolate EFM 15-1; for Anti-bacterial activity (MIC), strain EFM 15-2: clinical isolate EFM 15-2; for Anti-bacterial activity (MIC), strain EFM 15-3: clinical isolate EFM 15-3; for Anti-bacterial activity (MIC), strain EFM 15-4: clinical isolate EFM 15-4; for Anti-bacterial activity (MIC), strain EFM 15-5: clinical isolate EFM 15-5; for Anti-bacterial activity (MIC), strain EFM 15-6: clinical isolate EFM 15-6
In short: as §1

[6] = system: methicillin-sensitive Staphylococcus aureus (MSSA); test: as above; conditions: for Anti-bacterial activity (MIC), strain MSSA 15-3: clinical isolate MSSA 15-3; for Anti-bacterial activity (MIC), strain MSSA 15-4: clinical isolate MSSA 15-4; for Anti-bacterial activity (MIC), strain MSSA 15-5: clinical isolate MSSA 15-5; for Anti-bacterial activity (MIC), strain MSSA 15-6: clinical isolate MSSA 15-6
In short: as §1

[7] = system: methicillin-resistant Staphylococcus epidermidis (MRSE); test: as above; conditions: for Anti-bacterial activity (MIC), strain MRSE 15-1: clinical isolate MRSE 15-1; for Anti-bacterial activity (MIC), strain MRSE 15-2: clinical isolate MRSE 15-2; for Anti-bacterial activity (MIC), strain MRSE 15-3: clinical isolate MRSE 15-3; for Anti-bacterial activity (MIC), strain MRSE 15-7: clinical isolate MRSE 15-7
In short: as §1

[8] = system: methicillin-resistant Staphylococcus aureus (MRSA); test: as above; conditions: for Anti-bacterial activity (MIC), strain MRSA 15-1: clinical isolate MRSA 15-1; for Anti-bacterial activity (MIC), strain MRSA 15-2: clinical isolate MRSA 15-2; for Anti-bacterial activity (MIC), strain MRSA 15-3: clinical isolate MRSA 15-3; for Anti-bacterial activity (MIC), strain MRSA 15-4: clinical isolate MRSA 15-4
In short: as §1

[9] = system: Escherichia coli (including ESBLs, non-ESBLs); test: as above; conditions: for Anti-bacterial activity (MIC), strain ECO+ 15-1: clinical isolate ECO+ 15-1; for Anti-bacterial activity (MIC), strain ECO+ 15-2: clinical isolate ECO+ 15-2; for Anti-bacterial activity (MIC), strain ECO+ 15-3: clinical isolate ECO+ 15-3; for Anti-bacterial activity (MIC), strain ECO+ 15-4: clinical isolate ECO+ 15-4; for Anti-bacterial activity (MIC), strain ECO− 15-1: clinical isolate ECO− 15-1; for Anti-bacterial activity (MIC), strain ECO− 15-2: clinical isolate ECO− 15-2; for Anti-bacterial activity (MIC), strain ECO− 15-3: clinical isolate ECO− 15-3; for Anti-bacterial activity (MIC), strain ECO− 15-4: clinical isolate ECO− 15-4
In short: as §1

[10] = system: HCT-116 colorectal cancer cell line; test: CCK-8 proliferation inhibition; conditions: Homo sapiens, HCT-116, 72 h, concentration of 30 μM; 72 hours; CCK-8; read-out: HCT116 inhibition rate/%
In short: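 Cells were plated overnight at 2000 cells/well, then compound in culture medium was added at a range of final concentrations. After 72 hours in a CO2 incubator, medium was replaced with 1:10 CCK-8 solution for the read-out.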

SMILES: CCCC[C@H](CC(=O)NO)C(=O)N1CC2(CC2)C[C@H]1C(=O)NC1CC1 [Example 50, (S)—N-cyclopropyl-5-((R)-2-(2-(hydroxyamino)-2-oxoethyl)hexanoyl)-5-azaspiro[2.4]heptane-6-carboxamide]
- Anti-bacterial activity (MIC), strain SPN 16-2 [1]: > 32 µg/mL
- Anti-bacterial activity (MIC), strain SPN 16-4 [1]: > 32 µg/mL
- Anti-bacterial activity (MIC), strain EFA 15-1 [2]: > 32 µg/mL
- Anti-bacterial activity (MIC), strain EFA 15-2 [2]: > 32 µg/mL
- Anti-bacterial activity (MIC), strain EFA 15-3 [2]: > 32 µg/mL
- Anti-bacterial activity (MIC), strain EFA 15-4 [2]: > 32 µg/mL
- Anti-bacterial activity (MIC), strain EFA 15-5 [2]: > 32 µg/mL
- Anti-bacterial activity (MIC), strain EFA 15-6 [2]: > 32 µg/mL
- Anti-bacterial activity (MIC), strain EFA 15-9 [2]: > 32 µg/mL
- Anti-bacterial activity (MIC), strain MSSE 15-3 [3]: > 32 µg/mL
- Anti-bacterial activity (MIC), strain MSSE 15-4 [3]: > 32 µg/mL
- Anti-bacterial activity (MIC), strain MSSE 15-5 [3]: > 32 µg/mL
- Anti-bacterial activity (MIC), strain MSSE 15-6 [3]: > 32 µg/mL
- Anti-bacterial activity (MIC), strain BCA 14-1 [4]: > 32 µg/mL
- Anti-bacterial activity (MIC), strain BCA 14-4 [4]: > 32 µg/mL
- Anti-bacterial activity (MIC), strain BCA 14-5 [4]: > 32 µg/mL
- Anti-bacterial activity (MIC), strain BCA 14-6 [4]: > 32 µg/mL
- Anti-bacterial activity (MIC), strain BCA 14-7 [4]: > 32 µg/mL
- Anti-bacterial activity (MIC), strain BCA 14-8 [4]: > 32 µg/mL
- Anti-bacterial activity (MIC), strain BCA 14-10 [4]: > 32 µg/mL
- Anti-bacterial activity (MIC), strain EFM 15-1 [5]: > 32 µg/mL
- Anti-bacterial activity (MIC), strain EFM 15-2 [5]: > 32 µg/mL
- Anti-bacterial activity (MIC), strain EFM 15-3 [5]: > 32 µg/mL
- Anti-bacterial activity (MIC), strain EFM 15-4 [5]: > 32 µg/mL
- Anti-bacterial activity (MIC), strain EFM 15-5 [5]: > 32 µg/mL
- Anti-bacterial activity (MIC), strain EFM 15-6 [5]: > 32 µg/mL
- Anti-bacterial activity (MIC), strain MSSA 15-3 [6]: > 32 µg/mL
- Anti-bacterial activity (MIC), strain MSSA 15-4 [6]: > 32 µg/mL
- Anti-bacterial activity (MIC), strain MSSA 15-5 [6]: > 32 µg/mL
- Anti-bacterial activity (MIC), strain MSSA 15-6 [6]: > 32 µg/mL
- Anti-bacterial activity (MIC), strain MRSE 15-1 [7]: > 32 µg/mL
- Anti-bacterial activity (MIC), strain MRSE 15-2 [7]: > 32 µg/mL
- Anti-bacterial activity (MIC), strain MRSE 15-3 [7]: > 32 µg/mL
- Anti-bacterial activity (MIC), strain MRSE 15-7 [7]: > 32 µg/mL
- Anti-bacterial activity (MIC), strain MRSA 15-1 [8]: > 23 µg/mL
- Anti-bacterial activity (MIC), strain MRSA 15-2 [8]: > 32 µg/mL
- Anti-bacterial activity (MIC), strain MRSA 15-3 [8]: > 32 µg/mL
- Anti-bacterial activity (MIC), strain MRSA 15-4 [8]: > 32 µg/mL
- Anti-bacterial activity (MIC), strain ECO+ 15-1 [9]: > 32 µg/mL
- Anti-bacterial activity (MIC), strain ECO+ 15-2 [9]: > 32 µg/mL
- Anti-bacterial activity (MIC), strain ECO+ 15-3 [9]: > 32 µg/mL
- Anti-bacterial activity (MIC), strain ECO+ 15-4 [9]: > 32 µg/mL
- Anti-bacterial activity (MIC), strain ECO− 15-1 [9]: > 32 µg/mL
- Anti-bacterial activity (MIC), strain ECO− 15-2 [9]: > 32 µg/mL
- Anti-bacterial activity (MIC), strain ECO− 15-3 [9]: > 32 µg/mL
- Anti-bacterial activity (MIC), strain ECO− 15-4 [9]: > 32 µg/mL
- inhibition at 30 µM [10]: -11%

SMILES: CCCC[C@H](CC(=O)NO)C(=O)N1CC2(CC2)C[C@H]1C(=O)Nc1cnn(CCN(C)C)c1 [Example 52, (S)—N-(1-(2-(dimethylamino)ethyl)-1H-pyrazol-4-yl)-5-((R)-2-(2-(hydroxyamino)-2-oxoethyl)hexanoyl)-5-spiro[2.4]heptane-6-carboxamide]
- Anti-bacterial activity (MIC), strain SPN 16-2 [1]: 8 µg/mL
- Anti-bacterial activity (MIC), strain SPN 16-4 [1]: 8 µg/mL
- Anti-bacterial activity (MIC), strain EFA 15-1 [2]: > 32 µg/mL
- Anti-bacterial activity (MIC), strain EFA 15-2 [2]: > 32 µg/mL
- Anti-bacterial activity (MIC), strain EFA 15-3 [2]: > 32 µg/mL
- Anti-bacterial activity (MIC), strain EFA 15-4 [2]: > 32 µg/mL
- Anti-bacterial activity (MIC), strain EFA 15-5 [2]: > 32 µg/mL
- Anti-bacterial activity (MIC), strain EFA 15-6 [2]: > 32 µg/mL
- Anti-bacterial activity (MIC), strain EFA 15-9 [2]: > 32 µg/mL
- Anti-bacterial activity (MIC), strain MSSE 15-3 [3]: > 32 µg/mL
- Anti-bacterial activity (MIC), strain MSSE 15-4 [3]: > 32 µg/mL
- Anti-bacterial activity (MIC), strain MSSE 15-5 [3]: > 32 µg/mL
- Anti-bacterial activity (MIC), strain MSSE 15-6 [3]: > 32 µg/mL
- Anti-bacterial activity (MIC), strain BCA 14-1 [4]: > 32 µg/mL
- Anti-bacterial activity (MIC), strain BCA 14-4 [4]: > 32 µg/mL
- Anti-bacterial activity (MIC), strain BCA 14-5 [4]: > 32 µg/mL
- Anti-bacterial activity (MIC), strain BCA 14-6 [4]: > 32 µg/mL
- Anti-bacterial activity (MIC), strain BCA 14-7 [4]: > 32 µg/mL
- Anti-bacterial activity (MIC), strain BCA 14-8 [4]: > 32 µg/mL
- Anti-bacterial activity (MIC), strain BCA 14-10 [4]: > 32 µg/mL
- Anti-bacterial activity (MIC), strain EFM 15-1 [5]: > 32 µg/mL
- Anti-bacterial activity (MIC), strain EFM 15-2 [5]: > 32 µg/mL
- Anti-bacterial activity (MIC), strain EFM 15-3 [5]: > 32 µg/mL
- Anti-bacterial activity (MIC), strain EFM 15-4 [5]: > 32 µg/mL
- Anti-bacterial activity (MIC), strain EFM 15-5 [5]: 16 µg/mL
- Anti-bacterial activity (MIC), strain EFM 15-6 [5]: 16 µg/mL
- Anti-bacterial activity (MIC), strain MSSA 15-3 [6]: > 32 µg/mL
- Anti-bacterial activity (MIC), strain MSSA 15-4 [6]: > 32 µg/mL
- Anti-bacterial activity (MIC), strain MSSA 15-5 [6]: > 32 µg/mL
- Anti-bacterial activity (MIC), strain MSSA 15-6 [6]: > 32 µg/mL
- Anti-bacterial activity (MIC), strain MRSE 15-1 [7]: > 32 µg/mL
- Anti-bacterial activity (MIC), strain MRSE 15-2 [7]: > 32 µg/mL
- Anti-bacterial activity (MIC), strain MRSE 15-3 [7]: > 32 µg/mL
- Anti-bacterial activity (MIC), strain MRSE 15-7 [7]: > 32 µg/mL
- Anti-bacterial activity (MIC), strain MRSA 15-1 [8]: > 32 µg/mL
- Anti-bacterial activity (MIC), strain MRSA 15-2 [8]: > 32 µg/mL
- Anti-bacterial activity (MIC), strain MRSA 15-3 [8]: > 32 µg/mL
- Anti-bacterial activity (MIC), strain MRSA 15-4 [8]: > 32 µg/mL
- Anti-bacterial activity (MIC), strain ECO+ 15-1 [9]: > 32 µg/mL
- Anti-bacterial activity (MIC), strain ECO+ 15-2 [9]: > 32 µg/mL
- Anti-bacterial activity (MIC), strain ECO+ 15-3 [9]: > 32 µg/mL
- Anti-bacterial activity (MIC), strain ECO+ 15-4 [9]: > 32 µg/mL
- Anti-bacterial activity (MIC), strain ECO− 15-1 [9]: > 32 µg/mL
- Anti-bacterial activity (MIC), strain ECO− 15-2 [9]: > 32 µg/mL
- Anti-bacterial activity (MIC), strain ECO− 15-3 [9]: > 32 µg/mL
- Anti-bacterial activity (MIC), strain ECO− 15-4 [9]: > 32 µg/mL
- inhibition at 30 µM [10]: -1%
